Measured values as given in patent US20220098154A1 (IDEAYA Biosciences, Inc., priority 2019, published 2022).

Biological target: T1, Pol theta polymerase domain (residues 1819-2590) (Homo sapiens, UniProt O75417)
T1 construct: Pol theta polymerase domain (residues 1819-2590)
T1 sequence (O75417 1819-2590): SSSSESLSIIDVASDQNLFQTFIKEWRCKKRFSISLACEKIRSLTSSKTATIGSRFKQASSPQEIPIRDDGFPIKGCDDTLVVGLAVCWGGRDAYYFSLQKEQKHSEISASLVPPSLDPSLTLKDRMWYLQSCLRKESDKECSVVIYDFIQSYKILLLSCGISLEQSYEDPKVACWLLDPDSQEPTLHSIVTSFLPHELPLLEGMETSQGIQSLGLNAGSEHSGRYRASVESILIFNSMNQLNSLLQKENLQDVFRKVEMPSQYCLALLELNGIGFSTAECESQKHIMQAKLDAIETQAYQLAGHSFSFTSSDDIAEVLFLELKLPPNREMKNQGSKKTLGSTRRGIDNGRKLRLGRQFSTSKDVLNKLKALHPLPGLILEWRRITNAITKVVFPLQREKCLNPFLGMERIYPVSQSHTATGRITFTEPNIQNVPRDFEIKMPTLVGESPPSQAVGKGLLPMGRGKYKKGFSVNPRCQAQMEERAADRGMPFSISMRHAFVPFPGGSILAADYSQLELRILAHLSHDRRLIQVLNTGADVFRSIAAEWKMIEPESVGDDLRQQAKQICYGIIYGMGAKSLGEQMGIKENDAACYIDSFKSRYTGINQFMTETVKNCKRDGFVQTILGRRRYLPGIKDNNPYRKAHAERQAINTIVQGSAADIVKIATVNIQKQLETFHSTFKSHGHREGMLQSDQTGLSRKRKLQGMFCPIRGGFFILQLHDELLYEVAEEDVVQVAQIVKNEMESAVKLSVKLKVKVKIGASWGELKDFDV
Experiment: Primer extension assay: inhibition of polymerase activity of Pol theta (molecular beacon fluorescence)
Format: biochemical
Details: Pol theta polymerase domain 4 nM; 15 min pre-incubation; fluorescence change over 30 min (ex 485 nm, em 535 nm); 11-point dilution series
Protocol: The ability of the compounds of Formula (I) to inhibit polymerase activity of Pol theta was determined using the assay described below.
A mixture of 20 uL of Pol theta polymerase domain (residues 1819-2590) at a final concentration of 4 nM in assay buffer (20 m M TRIS, pH 7.80, 50 mM KCl, 10 mM MgCl2, 1 mM DTT, 0.01% BSA, 0.01% Tween20) was added to test compounds (11-point dilution series of test compounds) except the low control wells without test compounds. The above enzyme and test compound inhibitor mixture was then incubated at room temperature for 15 min. An equal volume (20 μl) of dNTP substrate mixture (48 μM) and primed molecular beacon DNA (obtained by annealing template SEQ ID NO 2: (5′-CCTTCCTCCCGTGTCTTG-TACCTTCCCGTCA-GGAGGAAGG-3′) with 5′-TAMRA and 3′-BHQ and primer DNA (SEQ ID NO: 3; 5′-GACGGGAAGG-3′) in 10 mM Tris-HCl pH 8.0, 100 mM NaCl buffer) (96 nM) in assay buffer was added to all the test wells. The inhibition activity was measured by monitoring the fluorescence change over 30 min at 535 nm upon excitation at 485 nm. The high control (DMSO with enzyme) with high fluorescence intensity represents no inhibition of polymerase reaction while the low control (DMSO with buffer) with low fluorescence intensity represents full inhibition of polymerase activity. Slope of the reaction progress curves were used to calculate the rate of polymerization. The rates were used to determine the percent inhibition using a four-parameter inhibition model to generate IC50, Hill slope and max inhibition.

SMILES	IC50 [nM]
CN(C(=O)CNc1nc(C(F)(F)F)cc(C(F)(F)F)c1C#N)c1ccc2ncncc2c1 [Example 57, 2-((3-cyano-4,6-bis(trifluoromethyl)pyridin-2-yl)amino)-N-methyl-N-(quinazolin-6-yl)acetamide]	200 to 500
CN(C(=O)CNc1nc(C(F)(F)F)cc(C(F)(F)F)c1C#N)c1ccc(C#N)cc1 [Example 3, 2-((3-cyano-4,6-bis(trifluoromethyl)pyridin-2-yl)-amino)-N-(4-cyanophenyl)-N-methylacetamide]	200 to 500
Cc1coc2ccc(N(C)C(=O)CNc3nc(C(F)(F)F)cc(C(F)(F)F)c3C#N)cc12 [Example 51, 2-((3-cyano-4,6-bis(trifluoromethyl)pyridin-2-yl)amino)-N-methyl-N-(3-methylbenzofuran-5-yl)acetamide]	< 200
CN(C(=O)COc1cc(Cl)cc(C(F)(F)F)c1)c1ccc(F)cc1 [Example 14, 2-[3-chloro-5-(trifluoromethyl)phenoxy]-N-(4-fluoro-phenyl)-N-methylacetamide]	200 to 500
Cc1nc(OCC(=O)N(C)c2ccc(Cl)cc2)c(C#N)c(C)c1Cl [Example 41, 2-[(5-chloro-3-cyano-4,6-dimethylpyridin-2-yl)oxy]-N-(4-chloro-phenyl)-N-methylacetamide]	< 200
CN(C(=O)CNc1cc(Cl)cc(Cl)c1)c1ccc(F)cc1 [Example 31, 2-[(3,5-dichlorophenyl)amino]-N-(4-fluorophenyl)-N-methyl-acetamide]	500 to 1000
CN(C(=O)CNc1nc(C(F)(F)F)cc(C(F)(F)F)c1C#N)c1ccc(F)cc1C#N [Example 49, 2-((3-cyano-4,6-bis(trifluoromethyl)pyridin-2-yl)amino)-N-(2-cyano-4-fluorophenyl)-N-methylacetamide]	500 to 1000
CN(C(=O)CNc1nc(C(F)(F)F)cc(C(F)(F)F)c1C#N)c1ccc(F)cc1Cl [Example 48, N-(2-chloro-4-fluorophenyl)-2-((3-cyano-4,6-bis(trifluoromethyl)pyridin-2-yl)-amino)-N-methylacetamide]	< 200
CN(C(=O)CNc1nc(C(F)(F)F)cc(C(F)(F)F)n1)c1ccc(F)cc1 [Example 2, 2-(4,6-bis(trifluoromethyl)pyrimidin-2-ylamino)-N-(4-fluoro-phenyl)-N-methylacetamide]	< 200
Cc1c(Cl)cnc(NCC(=O)N(C)c2ccccc2)c1C#N [Example 37, 2-(5-chloro-3-cyano-4-methylpyridin-2-ylamino)-N-methyl-N-phenylacetamide]	200 to 500
CN(C(=O)CNc1nc(C(F)(F)F)cc(C(F)(F)F)c1C#N)c1ccc2c(c1)ncn2C [Example 50, 2-((3-cyano-4,6-bis(trifluoromethyl)pyridin-2-yl)amino)-N-methyl-N-(1-methyl-1H-benzo[d]imidazol-5-yl)acetamide]	< 200
CN(C(=O)CNc1nc(C(F)(F)F)cc(C(F)(F)F)c1C#N)c1ccc2c(cnn2C)c1 [Example 54, 2-((3-cyano-4,6-bis(trifluoromethyl)pyridin-2-yl)amino)-N-methyl-N-(1-methyl-1H-indazol-5-yl)acetamide]	< 200
Cc1nc(NCC(=O)N(C)c2ccc(F)cc2)c(C#N)c2ccccc12 [Example 19, 2-[(4-cyano-1-methylisoquinolin-3-yl)amino]-N-(4-fluorophenyl)-N-methylacetamide]	< 200
[2H]C([2H])([2H])N(C(=O)CNc1nc(C(F)(F)F)cc(C(F)(F)F)c1C#N)c1ccc(F)cc1 [Example 47, 2-((3-cyano-4,6-bis(trifluoromethyl)pyridin-2-yl)amino)-N-(4-fluorophenyl)-N-(methyl-d3)acetamide]	< 200
CN(C(=O)CNc1nc(C(F)(F)F)cc(C(F)(F)F)c1C#N)c1cc(Cl)cc(Cl)c1 [Example 60, 2-((3-cyano-4,6-bis(trifluoromethyl)pyridin-2-yl)amino)-N-(3,5-dichlorophenyl)-N-methylacetamide]	< 200

The remaining lines, values ahead:

IC50 [nM]	SMILES
200 to 500	Cc1nc(N[C@@H](CC(N)=O)C(=O)N(C)c2ccc(F)cc2)c(C#N)c(C)c1Cl [Example 18, (S)-2-(5-chloro-3-cyano-4,6-dimethylpyridin-2-yl-amino)-N1-(4-fluorophenyl)-N1-methylsuccinamide]
500 to 1000	Cc1c(C#N)c(NCC(=O)N(C)c2ccc(F)cc2)nc2ccccc12 [Example 29, 2-[(3-cyano-4-methylquinolin-2-yl)amino]-N-(4-fluorophenyl)-N-methylacetamide]
500 to 1000	CC(=O)N1Cc2ccc(N(C)C(=O)CNc3nc(C(F)(F)F)cc(C(F)(F)F)c3C#N)cc2C1 [Example 59, N-(2-acetylisoindolin-5-yl)-2-((3-cyano-4,6-bis(trifluoromethyl)pyridin-2-yl)amino)-N-methylacetamide]
< 200	Cc1nc(NCC(=O)N(C)c2ccc(F)cc2)c(C#N)c(C)c1Cl [Example 42, 2-(5-chloro-3-cyano-4,6-dimethylpyridin-2-ylamino)-N-(4-fluorophenyl)-N-methylacetamide]
< 200	CN(C(=O)CNc1nc(C(F)(F)F)cc(C(F)(F)F)c1C#N)c1ccc2nccnc2c1 [Example 58, 2-((3-cyano-4,6-bis(trifluoromethyl)pyridin-2-yl)amino)-N-methyl-N-(quinoxalin-6-yl)acetamide]
< 200	Cc1cc2cc(N(C)C(=O)CNc3nc(C(F)(F)F)cc(C(F)(F)F)c3C#N)ccc2o1 [Example 52, 2-((3-cyano-4,6-bis(trifluoromethyl)pyridin-2-yl)amino)-N-methyl-N-(2-methylbenzofuran-5-yl)acetamide]
< 200	Cc1nc(NCC(=O)N(C)c2ccc(Cl)cc2)c(C#N)c(C)c1Cl [Example 40, 2-(5-chloro-3-cyano-4,6-dimethylpyridin-2-ylamino)-N-(4-chlorophenyl)-N-methylacetamide]
< 200	Cc1nc(N[C@@H](C)C(=O)N(C)c2ccc(F)cc2)c(C#N)c(C)c1Cl [Example 25, (S)-2-((5-chloro-3-cyano-4,6-dimethylpyridin-2-yl)-amino)-N-(4-fluorophenyl)-N-methylpropanamide]
< 200	COc1ccc(N(C)C(=O)CNc2nc(C)c(Cl)c(C)c2C#N)cc1 [Example 22, 2-(5-chloro-3-cyano-4,6-dimethylpyridin-2-ylamino)-N-(4-methoxyphenyl)-N-methylacetamide]
< 200	N#Cc1c(C(F)(F)F)cc(C(F)(F)F)nc1NCC(=O)N(c1ccc(F)cc1)C1CC1 [Example 4, 2-((3-cyano-4,6-bis(trifluoromethyl)pyridin-2-yl)-amino)-N-cyclopropyl-N-(4-fluorophenyl)acetamide]
500 to 1000	Cc1cc(NCC(=O)N(C)c2ccccc2)nc(C)c1Cl [Example 34, 2-[(5-chloro-4,6-dimethylpyridin-2-yl)amino]-N-methyl-N phenylacetamide]
< 200	Cc1nc(NCC(=O)N(C)c2ccc(F)cc2)c(C#N)c2c1CCC2 [Example 28, 2-(4-cyano-1-methyl-6,7-dihydro-5H-cyclopenta[c]-pyridin-3-ylamino)-N-(4-fluorophenyl)-N-methylacetamide]
